According to US10570179B2, “Substituted urea depsipeptide analogs as activators of the CLPP endopeptidase” (priority 2016, dated 2020):
Converted amounts (≈) assume the structure as drawn. Like-named read-outs stand apart in the source and are kept apart here. Numbered stars: 1 amine (or outer) side, 2 acyl side, 3 side chain; on linkers, the order of the positions; unused ones are H or OH. Bridge positions count the residues as written; N and C are the ends. Square brackets hold non-standard residues; d marks the D form. Peptide text beside a SMILES is read from it. * marks the point of attachment. Piperazine(2S-CO,4-Me) = CN1CCN[C@H](C(=O)O)C1; Phe(3,5-F2) = N[C@@H](Cc1cc(F)cc(F)c1)C(=O)O; NH(1-Me-indolin-5-yl) = CN1CCc2cc(N*)ccc21; Morpholine(3S-CO) = O=C(O)[C@@H]1COCCN1; NH(4-Cl-2-F-phenyl) = Fc1cc(Cl)ccc1N*; Pro(4R-Me) = C[C@H]1CN[C@H](C(=O)O)C1; aThr = C[C@H](O)[C@H](N)C(=O)O; CO = O=C([*:1])[*:2]

Columns and labels:
[1] = Plasma protein binding, rapid equilibrium dialysis; type: in vitro ADME, mouse
S. pneumoniae = assay: Minimal inhibitory concentration, microbroth dilution; type: cell-based; settings: Streptococcus pneumoniae, read-out: Minimal Inhibitory Concentrations (μM) S. pneumoniae
Procedure, shortened: (§1)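 Following CLSI M7-A7 microbroth dilution, twofold serial dilutions of compound (top final concentration 200 μM) were combined with an equal volume of broth inoculum at about 10^5 cfu/mL. Plates were incubated aerobically at 37 °C overnight, and the MIC was the lowest concentration preventing visible growth.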

B. subtilis = assay: as above; type: cell-based; settings: Bacillus subtilis, read-out: Minimal Inhibitory Concentrations (μM) B. subtilis
Procedure, shortened: as §1

S. pyogenes = assay: as above; type: cell-based; settings: Streptococcus pyogenes, read-out: Minimal Inhibitory Concentrations (μM) S. pyogenes
Procedure, shortened: as §1

[2] = Cytotoxicity assay (CellTiter-Glo cell viability); type: cell-based; settings: African green monkey
Description: Cytotoxicity was determined by determining the effect of compounds on cell viability. Vero (kidney epithelial cells; ATCC CCL-81) monolayers were trypsinized and 5000 cells/well were seeded (10-15% confluency) into white-wall, flat bottom 96 well microwell plates (Corning) using enriched Dulbecco's Modified Eagle's Medium (Hyclone: DMEM/High Glucose) containing 10% Fetal Bovine Serum (ATCC-30-2020). Plates were incubated overnight at 37° C. in the presence of 5% CO2. Drug-free media was then replaced with media containing serial dilutions of test compound or DMSO carrier. After an additional 72 hours of incubation, viability was indirectly measured using the CellTiter-Glo® Luminescent Cell Viability (Promega) assay. Assay plates were read at peak emission wavelength of 560 nm using a EnVision® Multilabel Plate Reader (Perkin Elmer) or PHERAstar FS Multilabel reader (BMG, Cary, N.C.). The concentration of test compounds that inhibited growth by 50% (IC50 value) was computed using nonlinear regression based fitting of inhibition curves using log [inhibitor] vs. response-variable slope (four parameters)—symmetrical equation, in GraphPad Prism version 6 [GraphPad Software, La Jolla, Calif. USA, www.graphpad.com]. For each experiment, compounds were tested in duplicate. IC50 values presented are the range of two biologically independent experiments.

Plasma stability assay = type: in vitro ADME, human; settings: for Human: 10 μM
Procedure, shortened: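 Compounds at 10 μM final in human or mouse plasma, incubated at 37 °C and sampled at 0, 3, 24 and 48 h in triplicate. Reactions quenched with cold acetonitrile containing warfarin internal standard; parent measured by LC-MS. Half-life from least-squares first-order fit.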

Compound	Mouse ([1]; mouse, 4 h, 10 μM, pH 7.4) [%]	MIC (S. pneumoniae; MIC) [µM]	MIC (B. subtilis; MIC) [µM]	MIC (S. pyogenes; MIC) [µM]	IC50 at 72 h [2] [µM]	Human (Plasma stability assay) [h]	Mouse ([1]; plasma binding, % Bound, mouse plasma) [%]	MIC (S. pneumoniae) [µM]	MIC (B. subtilis) [µM]	MIC (S. pyogenes) [µM]	IC50 at 72 h ([2]; Vero cells, 72 hours, read-out: Cytotoxicity IC50) [µM]	Human (hr) (Plasma stability assay; plasma stability half-life, human plasma, 37° C.)
Cc1cccc(C[C@H](NC(=O)Nc2ccc(Cl)cc2F)C(=O)N[C@H]2COC(=O)[C@@H]3C[C@@H](C)CN3C(=O)[C@H](C)NC(=O)[C@@H]3CCCCN3C(=O)[C@@H]3CCCN3C2=O)c1 [Compound 8, (S)-2-(3-(4-CHLORO-2-FLUOROPHENYL)UREIDO)-N-((2R,6S,8AS,14AS,20S,23AS)-2,6-DIMETHYL-5,8,14,19,23-PENTAOXOOCTADECAHYDRO-1H,5H,14H,19H-PYRIDO[2,1-I]DIPYRROLO[2,1-C:2′,1′-L][1]OXA[4,7,10,13]TETRAAZACYCLOHEXADECIN-20-YL)-3-(M-TOLYL)PROPANAMIDE]	98.9 ± 0.4	0.078 (≈ 0.0632 µg/mL)	0.156 (≈ 0.126 µg/mL)	0.156 (≈ 0.126 µg/mL)	> 10	34.37	–	–	–	–	–	–
Cc1cccc(C[C@H](NC(=O)Nc2ccc(Cl)cc2F)C(=O)N[C@H]2COC(=O)[C@@H]3C[C@@H](C)CN3C(=O)[C@H](C)NC(=O)[C@@H]3CCCCN3C(=O)[C@@H]3C[C@@H](O)CN3C2=O)c1 [Compound 10]	99.7 ± 0.0	0.078 (≈ 0.0645 µg/mL)	0.313 (≈ 0.259 µg/mL)	0.156 (≈ 0.129 µg/mL)	> 50	58.50	–	–	–	–	–	–
Cc1cccc(C[C@H](NC(=O)Nc2ccc(Cl)cc2F)C(=O)N[C@H]2COC(=O)[C@@H]3C[C@@H](C)CN3C(=O)[C@H](C)NC(=O)[C@@H]3CCCCN3C(=O)[C@@H]3C[C@H](N)CN3C2=O)c1 [Compound 12, (S)—N-((2R,6S,8AS,14AS,16S,20S,23AS)-16-AMINO-2,6-DIMETHYL-5,8,14,19,23-PENTAOXOOCTADECAHYDRO-1H,5H,14H,19H-PYRIDO[2,1-I]DIPYRROLO[2,1-C:2′,1′-L][1]OXA[4,7,10,13]TETRAAZACYCLOHEXADECIN-20-YL)-2-(3-(4-CHLORO-2-FLUOROPHENYL)UREIDO)-3-(M-TOLYL)PROPANAMIDE]	99.6 ± 0.0	0.156 (≈ 0.129 µg/mL)	1.25 (≈ 1.03 µg/mL)	0.313 (≈ 0.258 µg/mL)	> 50	38.58	–	–	–	–	–	–
C[C@@H]1C[C@H]2C(=O)O[C@@H](C)[C@H](NC(=O)[C@H](Cc3cc(F)cc(F)c3)NC(=O)Nc3ccc4c(c3)CCN4C)C(=O)N3CCC[C@H]3C(=O)N3CCOC[C@H]3C(=O)N[C@@H](C)C(=O)N2C1 [Compound 32] ({NH(1-Me-indolin-5-yl)-CO}-[Phe(3,5-F2)][aThr]P[Morpholine(3S-CO)]A[Pro(4R-Me)]; ester 2-C)	–	–	–	–	–	–	91.5 ± 1.5	0.078 (≈ 0.0664 µg/mL)	0.313 (≈ 0.266 µg/mL)	0.156 (≈ 0.133 µg/mL)	2.87	>>48 hr
C[C@@H]1C[C@H]2C(=O)OC[C@H](NC(=O)[C@H](Cc3cc(F)cc(F)c3)NC(=O)Nc3ccc(Cl)cc3F)C(=O)N3CCC[C@H]3C(=O)N3CCN(C)C[C@H]3C(=O)N[C@@H](C)C(=O)N2C1 [Compound 34] ({NH(4-Cl-2-F-phenyl)-CO}-[Phe(3,5-F2)]SP[Piperazine(2S-CO,4-Me)]A[Pro(4R-Me)]; ester 2-C)	97.5 ± 7.5	0.039 (≈ 0.033 µg/mL)	< 0.02	0.078 (≈ 0.0661 µg/mL)	> 50	26.56	–	–	–	–	–	–
